Measured values as given in patent publication US20020147136A1, “Compounds for targeting endothelial cells, compositions containing the same and methods for their use” (priority 2000, published 2002).
Residues, ends and D or L forms follow the SMILES beside them. No end group written: not given here.

Legend:
[1] = test system: HAEC; assay: Inhibition of TKPPR-bubble binding to HAEC in static culture by competing agents; format: cell-based, human; conditions: for ability to block binding of BRU-114 microbubbles to HAEC: up to 200 microM; for half-maximal inhibition of bubble binding / IC50 / Bubbles Bound: 5% TKPPR bubbles; for IC50: read-out: half-maximal inhibition of bubble binding; for inhibition of bubble binding to HAEC: Example 12
Experimental: Vials of the compositions of example 5 and of example 6 may be reconstituted with 5 mL of sterile saline, injected using a 20-guage 1.5 inch needle. Bubbles may be then formed within the vials by shaking by hand vigorously for 30 seconds. 1 to 5 mL of the bubble formulation may be removed from each vial and diluted with 3 volumes of D-PBS (without calcium or magnesium) within 1 hour of use.
Chamber slides containing confluent HAEC may be drained of culture medium, which was immediately replaced with one of the final bubble solutions prepared above. The wells may be slightly overfilled such that the liquid meniscus protrudes slightly above the plastic well-forming scaffold of the slide. Bubble solutions may be only added to alternate wells to minimize liquid cross-talk. The wells may be sealed with a piece of Parafilm and the slide incubated 20 minutes, inverted (according to Klibanov A. L., Advanced drug Delivery Reviews, 37, 1999, 139-157) to allow the bubbles to rise and make contact with the cells, after which the solutions may be poured off. Weakly associated bubbles may be removed by washing each well twice with 0.5 mL of D-PBS, swirling gently each time before pouring off. Additional D-PBS (0.5 mL) may be added to wells after the washes to keep the cells submerged until microscopic evaluation.
Composition I of Example 5 was repeated exactly as described except that 0.5 mg DPPE-GTKPPR was added (instead of 2.5 mg) yielding compositions with 1% DPPE-GTKPPR. Vials of this composition as well as that of composition I ofExample 5 (5% DPPE-GTKPPR) were reconstituted with 5 mL of sterile saline, injected using a 20-guage 1.5 inch needle. Bubbles were then formed within the vials by shaking by hand vigorously for 30 seconds. 1 to 5 mL of the bubble formulation was removed from each vial and diluted with 3 volumes of D-PBS (without calcium or magnesium) within 1 hour of use.
Chamber slides containing confluent HAEC were drained of culture medium, which was immediately replaced with one of the final bubble solutions prepared above. The wells were slightly overfilled such that the liquid meniscus protruded slightly above the plastic well-forming scaffold of the slide. Bubble solutions were only added to alternate wells to minimize liquid cross-talk. The wells were sealed with a piece of Parafilm and the slide was incubated 20 minutes, inverted to allow the bubbles to rise and make contact with the cells, after which the solutions were poured off. Weakly associated bubbles were removed by washing each well twice with 0.5 mL of D-PBS, swirling gently each time pouring off. Additional D-PBS (0.5 mL) was added to wells after the washes to keep the cells submerged until microscopic evaluation.
Assays were performed as described for Example 7 using microbubble compositions containing 2% BRU-114 (Composition I of Example 5) as a % of total phospholipid in the composition.
Compositions were reconstituted and assays were performed as described in Example 7 using microbubble compositions containing 1% BRU-114 (Composition I of Example 5) as a % of total phospholipid in the composition.
Assays were performed as described for Example 7 using microbubble compositions containing 2% BRU-114 (as a % of total phospholipid in the composition).

[2] = test system: NP-1/Fc; assay: Inhibition of 125I-VEGF165 binding to NP-1/Fc
Experimental: The ability of various compositions comprising TKPPR monomers or multimers to inhibit ^125I-VEGF binding to NP-1 was evaluated using NP-1/Fc. Competitive binding assays with microtiter plates coated with NP-1/Fc (R&D sytems) were performed using ^125I-VEGF165 as radioligand (Amersham Pharmacia Biotech Cat. No. IM274, Specific Activity: 1000-2500 Ci/mmol). […] Plates (Nunc MaxiSorp white opaque Microtiter plate [C-bottom, 437796]) were coated by incubating the wells with 75 µl of a solution containing 3 μlg/mL NP-1/Fc in D-PBS/0.1% NaAzide overnight at 4° C. after covering with sealing tape (Dynex, VWR Cat. No. 62402-931). […] All points were derived from triplicate wells, and for each set of replicates in NP-1/Fc-coated wells, a companion set in the absence of the receptor was included. For competitive binding, a series of unlabelled competitor concentrations were prepared in a 250 pM solution of ^1251-VEGF165 in assay buffer Solutions were added to 1.2 ml polypropylene tubes conforming to the microtiter format (Costar Cat. No. 29442-602), and transferred from these tubes to microtiter wells, without further dilution, using a multichannel pipettor. After addition of the appropriate solutions, microtiter plates were incubated at 4° C. for 2 hours. […] The plates were blotted dry and 25 μl deionized water and 100 μl scintillation fluid (Optiphase SuperMix, Wallac) were added to each well. Plates were agitated using a Plate Shaker (Hyperion, Cat. No. 4030-100F) for 3-5 minutes and were then counted using a Microplate Scintillation Counter (Wallac Microbeta Trilux) A set of serially diluted 125I-VEGF165 standard wells ranging from 200 to 0.04 pM were included with each experiment to aid in quantification of the amount of radiolabel bound.

[3] = test system: Neuropilin-1/Fc; assay: Fluorescence polarization binding to NP-1/Fc; conditions: for binding to NP-1/Fc by FP: Oregon Green-labeled ligand
Experimental: The ability of various compositions comprising TKPPR monomers or multimers to bind to NP-1/Fc and KDR-Fc was evaluated using FP. The binding studies of various Oregon Green (OG)-labeled compounds comprising TKPPR monomers or multimers and related compounds with Neuropilin-1/Fc, and KDR-Fc (both from R&D Systems), were carried out at 37° C. in D-PBS buffer (pH 7.4). FP values (mP) for each substrate was measured by titrating the ligand (5-20 nM) with receptor protein using a Jolley Research and Consulting FPM-1 fluorescence Polarization analyzer. In each of these experiments the observed polarization values were plotted against receptor concentration. The mP values for 100% binding of tracer labeled ligand to receptor protein was calculated using the software provided by the vendor.

[4] = competitor 50 microM, 2% BRU-114 bubbles
[5] = competitor 100 microM, 2% BRU-114 bubbles
[6] = competitor 200 microM, 2% BRU-114 bubbles
[7] = competitor 100 ng/ml, 2% BRU-114 bubbles
[8] = competitor 200 ng/ml, 2% BRU-114 bubbles

## CC(O)C(NC(=O)C(N)CS)C(=O)NC(CCCCN)C(=O)N1CCCC1C(=O)N1CCCC1C(=O)NC(CCCNC(=N)N)C(=O)NC(CS)C(=O)O (stereo not drawn) [BRU-305] (H-CTKPPRC-OH; configuration not given here)
[1]; 2% BRU-114 bubbles
  ability to block binding of BRU-114 microbubbles to HAEC: no ability to block
[1]; [4]
  Bubbles Bound % of control binding: 97%
[1]; [5]
  Bubbles Bound % of control binding: 78%
[1]; [6]
  Bubbles Bound % of control binding: 88%

## CC(O)C1/N=C(/O)C(N)CSSCC(C(=O)O)/N=C(/O)C(CCCNC(=N)N)/N=C(\O)C2CCCN2C(=O)C2CCCN2C(=O)C(CCCCN)/N=C\1O (stereo not drawn) [BRU-306]
[1]; 2% BRU-114 bubbles
  ability to block binding of BRU-114 microbubbles to HAEC: no ability to block
[1]; [4]
  Bubbles Bound % of control binding: 97%
[1]; [5]
  Bubbles Bound % of control binding: 71%
[1]; [6]
  Bubbles Bound % of control binding: 99%

## C[C@@H](O)[C@H](N)C(=O)N[C@@H](CCCCN)C(=O)N1CCC[C@H]1C(=O)N[C@@H](CCCNC(=N)N)C(=O)O [TKPR, L-threonyl-L-lysyl-L-prolyl-L-Arginine, reference compound] (H-TKPR-OH)
[1]; 1% BRU-114 bubbles
  potency at inhibiting BRU-114 microbubble binding relative to TKPPR (BRU-95): less potent than TKPPR
[1]; Example 7, compared with free TKPPR
  inhibition of TKPPR-bubble binding to HAEC: less effectively than free TKPPR
[1]; competitor 5 microM, 1% BRU-114 bubbles
  Bubbles Bound (average of duplicate): 1152
[1]; competitor 10 microM, 1% BRU-114 bubbles
  Bubbles Bound (average of duplicate): 976
[1]; competitor 25 microM, 1% BRU-114 bubbles
  Bubbles Bound (average of duplicate): 1171
[1]; competitor 50 microM, 1% BRU-114 bubbles
  Bubbles Bound (average of duplicate): 904
[1]; competitor 100 microM, 1% BRU-114 bubbles
  Bubbles Bound (average of duplicate): 556
[2]
  fold less potent a binding inhibitor than TKPPR: 5 to 6 fold
[2]; 250 pM 125I-VEGF165, 4° C., 2 hours
  IC50: 280000 nM

## BRU-170: TPATSVRG (negative control) [reference compound]
[2]; at 1 μM
  inhibition of 125I-VEGF165 binding to NP-1 Fc: no inhibition

## BRU-317: TKPPR dimer labeled with Oregon Green (also: dimer, labeled with Oregon Green)
[2]
  fold more potent than the monomer: 10 to 14 fold
[3]
  binding to NP-1/Fc by FP: barely detectable

## KDR/Fc: soluble human KDR/Fc chimera (R&D Sytems Inc.)
[1]
  half-maximal inhibition of bubble binding: about 450 ng/mL
  IC50: ~1.4 nM
  inhibition of bubble binding to HAEC: inhibit potently
[1]; KDR/Fc added 125 ng/ml
  Bubbles Bound: 1030 ± 12
[1]; KDR/Fc added 250 ng/ml
  Bubbles Bound: 786 ± 76
[1]; KDR/Fc added 500 ng/ml
  Bubbles Bound: 342 ± 78
[1]; KDR/Fc added 1000 ng/ml
  Bubbles Bound: 75 ± 5
[1]; KDR/Fc added 2500 ng/ml
  Bubbles Bound: 84 ± 3

## TKPPR-K(RPPKT)-K[K(RPPKT)TKPPR]-G-Z-OG [BRU-346]
[3]
  binding characteristics compared to BRU-326: did not exhibit the same binding characteristics
  binding to NP-1/Fc by FP: negative

## Thr-Lys-Pro-Pro-Arg-Lys(Arg-Pro-Pro-Lys-Thr)-Gly-TTDA-OG [BRU-337]
[3]
  binding characteristics compared to BRU-326: did not exhibit the same binding characteristics

## VEGF165: vascular endothelial growth factor isoform containing 165 amino acids
[1]; 2% BRU-114 bubbles
  ability to inhibit binding of BRU-114 microbubbles to HAEC: potently blocked
[1]
  half-maximal inhibition of bubble binding: about 12.5 ng/mL
  IC50: ~0.3 nM
  inhibition of bubble binding to HAEC: potently may inhibit
[1]; VEGF added 6.25 ng/ml
  Bubbles Bound: 1184 ± 172
[1]; VEGF added 12.5 ng/ml
  Bubbles Bound: 599 ± 6
[1]; VEGF added 25 ng/ml
  Bubbles Bound: 342 ± 22
[1]; VEGF added 50 ng/ml
  Bubbles Bound: 226 ± 39
[1]; VEGF added 75 ng/ml
  Bubbles Bound: 190 ± 45
[1]; competitor 25 ng/ml, 2% BRU-114 bubbles
  Bubbles Bound (average of duplicate): 144
[1]; [7]
  Bubbles Bound (average of duplicate): 94
[1]; [8]
  Bubbles Bound (average of duplicate): 70

B1: VEGF121: VEGF isoform of 121 amino acids, lacks the heparin-binding domain (protein)
chain: APMAEGGGQNHHEVVKFMDVYQRSYCHPIETLVDIFQEYPDEIEYIFKPSCVPLMRCGGCCNDEGLECVPTEESNITMQIMRIKPHQGQHIGEMSFLQHNKCECRPKKDRARQEKCDKPRR
[1]; 2% BRU-114 bubbles
  ability to inhibit binding of BRU-114 microbubbles to HAEC: little if any ability to inhibit
[1]; [7]
  Bubbles Bound (average of duplicate): 878
[1]; [8]
  Bubbles Bound (average of duplicate): 849
[1]; competitor 400 ng/ml, 2% BRU-114 bubbles
  Bubbles Bound (average of duplicate): 778
[3]; at up to 250nM
  effect on BRU-326 binding to NP-1: no effect
